Test results: patent publication US20220290140A1, “TRANS-CYCLOOCTENE LABELED ANTISENSE OLIGONUCLEOTIDES, RADIO LABELED TETRAZINE AND METHODS” (Biogen MA Inc., priority 2019, published 2022)

Assays:
[1] = Dynamic PET/CT of brain in NHP, baseline and post Malat1 ASO-TCO; format: in vivo; settings: cynomolgus monkey
Procedure: The pretargeting PET tracer ^18F-537-Tz was tested in a cynomolgus monkey, including baseline scans and a homologous blocking scan. The monkey was then dosed with Malat1 ASO-TCO and scanned again at 24 h and 168 h.
Dynamic PET scans (0-120 min) with arterial input function were performed on a female cynomolgous monkey using ^18F-537-Tz (5.7±0.7 mCi, 0.14±0.12 μg) in order to evaluate the tracer's efficacy in non-human primates. Parent fraction of tracer in arterial plasma was determined by extracting tracer using acetonitrile and analysis by radioHPLC. Baseline scans were performed first, measuring tracer kinetics in the brain. Malat1 ASO-TCO (20 mg in 2.4 mL aCSF) was then injected intrathecally under fluoroscopic guidance and ^18F-537-Tz PET/CT imaging performed at 24 h and 168 h under isoflurane anesthesia. Imaging data were co-registered to a cyno brain atlas, and TAC in subregions of interest were derived from them. Static PET/CT scans were acquired in each imaging session, with the field of view (FOV) oriented to capture the spine. This scan took place 130-160 min p.i. of tracer, and an ROI drawn over the spinal cord with muscle as a reference region.

[2] = Dynamic PET scans of brain, baseline, homologous block and pretargeted; format: in vivo, rat
Procedure: Dynamic PET scans were performed with arterial sampling to determine parent fraction of the tracer ^18F-537-Tz in baseline and pretargeted scans. Baseline imaging with a comparison to a homologous block with non-radioactive compound ^19F-537-Tz at 1 mg/kg was performed on a single rat, where non-radioactive compound was administered i.v. 5 min before injection of tracer. Next, three additional rats were imaged at baseline with no ASO-TCO administered. A final three rats received pretargeted scans and were dosed intrathecally with 0.56 mg Malat1 ASO-TCO in 30 μL saline followed by a 40 μL saline flush. 24 h after injection of the ASO, ^18F-537-Tz was injected intravenously and dynamic PET imaging performed.
Time-activity-curves (TAC) from 0 to 60 min showing the brain subregion distribution of ^18F-537-Tz in rat 2 at baseline and following iv administration of 1 mg/kg of unlabeled […] are illustrated in FIG. 9. […] The average brain regional SUV from 40-60 min of the scans were similar in the baseline and homologous block scans (Table 1).
PET/CT images with summed radioactivity from 0 to 60 min showing the brain distribution of ^18F-537-Tz in the 4 rats scanned at baseline and the 3 rats scanned 24 h after i.t. administration of ASO-TCO are illustrated in FIG. 10. There was an increase in brain uptake of radioactivity observed in all the ASO-TCO dosed rats. There was an increase of ca. […]

[3] = Brain protein binding (BPB); format: in vitro ADME
Text: As pretargeting is a 2-component system, an ^18F-Tz was developed to be CNS-penetrant based on cnsPET-MPO modeling (Zhang, L., et al. (2018). J Med Chem 61(8): 3296-3308).

[4] = rat Subject 2, Baseline scan, 40-60 min p.i. of tracer
[5] = rat Subject 2, Postdose (homologous block, 1 mg/kg non-radioactive compound i.v. 5 min before tracer), 40-60 min p.i.
[6] = rats, Baseline group (no ASO-TCO), 40-60 min p.i. of tracer
[7] = rats, Baseline group, 40-60 min p.i. of tracer
[8] = rats, Pretargeted group (0.56 mg Malat1 ASO-TCO i.t. 24 h before tracer), 40-60 min p.i.
[9] = rats, Pretargeted group (Malat1 ASO-TCO i.t. 24 h before tracer), 40-60 min p.i.
[10] = rats, Pretargeted vs Baseline, 40-60 min p.i.

O=C(Cc1ccc(-c2nncnn2)cc1)NCC[18F] [Compound 1]
uptake of the tracer in the brain, baseline PET/CT ([1]; 2-hour scan): good uptake
SUV uptake, baseline vs post-ASO scans (whole brain ROI) ([1]; 24 h and 7 days after Malat1 ASO-TCO i.t.): No significant different
difference in SUV between baseline and pretargeted scans in the brain ([1]; normalized TACs, final timepoint): ~10%
SUV Plasma (40-60 min) ([2]; rat Subject 2, Baseline scan): 1.12
SUV Brain [2, 4]: 1.29
SUV Cerebellum [2, 4]: 1.38
SUV Cortex [2, 4]: 1.07
SUV Frontal Cortex [2, 4]: 1.16
SUV Hippocampus [2, 4]: 1.28
SUV Hypothalamus [2, 4]: 1.45
SUV Thalamus [2, 4]: 1.46
SUV Plasma (40-60 min) ([2]; rat Subject 2, Postdose (homologous block, 1 mg/kg non-radioactive compound i.v. 5 min before tracer)): 1.45
SUV Brain [2, 5]: 1.22
SUV Cerebellum [2, 5]: 1.38
SUV Cortex [2, 5]: 1.10
SUV Frontal Cortex [2, 5]: 1.24
SUV Striatum [2, 5]: 1.40
SUV Thalamus [2, 5]: 1.52
SUV Hippocampus ([2]; rat, in vivo): 1.43
SUV Striatum ([2]; rat, in vivo): 1.42
SUV Hippocampus ([2]; rat, in vivo, iv, 1 mg/kg): 1.27
SUV Hypothalamus ([2]; rat, in vivo, iv, 1 mg/kg): 1.43
SUV Cerebellum [2, 6]: 1.52
SUV Cortex [2, 6]: 1.25
SUV Frontal Cortex [2, 6]: 1.33
SUV Hypothalamus [2, 6]: 1.62
SUV Plasma [2, 6]: 1.22
SUV Striatum [2, 6]: 1.52
SUV Thalamus [2, 6]: 1.64
SUV Whole Brain [2, 6]: 1.45
SUV normalized to plasma, Cerebellum [2, 7]: 1.27
SUV normalized to plasma, Cortex [2, 7]: 1.05
SUV normalized to plasma, Frontal Cortex [2, 7]: 1.11
SUV normalized to plasma, Hippocampus [2, 7]: 1.2
SUV normalized to plasma, Hypothalamus [2, 7]: 1.36
SUV normalized to plasma, Striatum [2, 7]: 1.27
SUV normalized to plasma, Thalamus [2, 7]: 1.37
SUV normalized to plasma, Whole Brain [2, 7]: 1.21
SUV Cerebellum [2, 8]: 1.9
SUV Cortex [2, 8]: 1.66
SUV Frontal Cortex [2, 8]: 1.66
SUV Hippocampus [2, 8]: 1.85
SUV Hypothalamus [2, 8]: 1.89
SUV Plasma [2, 8]: 1.18
SUV Striatum [2, 8]: 1.77
SUV Thalamus [2, 8]: 1.95
SUV Whole Brain [2, 8]: 1.79
SUV normalized to plasma, Cerebellum [2, 9]: 1.67
SUV normalized to plasma, Cortex [2, 9]: 1.42
SUV normalized to plasma, Frontal Cortex [2, 9]: 1.43
SUV normalized to plasma, Hippocampus [2, 9]: 1.61
SUV normalized to plasma, Hypothalamus [2, 9]: 1.63
SUV normalized to plasma, Striatum [2, 9]: 1.47
SUV normalized to plasma, Thalamus [2, 9]: 1.61
SUV normalized to plasma, Whole Brain [2, 9]: 1.53
% Change of SUV normalized to plasma, Cerebellum ([2]; rats, Pretargeted vs Baseline): 31%
% Change of SUV normalized to plasma, Cortex ([2]; rats, Pretargeted vs Baseline): 35%
% Change of SUV normalized to plasma, Frontal Cortex ([2]; rats, Pretargeted vs Baseline): 29%
% Change of SUV normalized to plasma, Hippocampus ([2]; rats, Pretargeted vs Baseline): 34%
% Change of SUV normalized to plasma, Hypothalamus ([2]; rats, Pretargeted vs Baseline): 20%
% Change of SUV normalized to plasma, Striatum ([2]; rats, Pretargeted vs Baseline): 16%
% Change of SUV normalized to plasma, Thalamus ([2]; rats, Pretargeted vs Baseline): 18%
% Change of SUV normalized to plasma, Whole Brain ([2]; rats, Pretargeted vs Baseline): 26%
% Change of SUV Cerebellum [2, 10]: 25%
% Change of SUV Cortex [2, 10]: 33%
% Change of SUV Frontal Cortex [2, 10]: 25%
% Change of SUV Hippocampus [2, 10]: 29%
% Change of SUV Hypothalamus [2, 10]: 17%
% Change of SUV Striatum [2, 10]: 16%
% Change of SUV Thalamus [2, 10]: 19%
% Change of SUV Whole Brain [2, 10]: 23%
brain entry of tracer ([2]; rats, highest uptake in thalamus/hypothalamus, lowest in cortical regions): readily entered the brain
BPB (rat) unbound [3]: 51%
